Values quoted from earlier work as cited in patent US9707278B2, “Methods of modulating immune responses by modifying Akt3 bioactivity” (Augusta University Research Institute, Inc., priority 2014, dated 2017).
Values belong to the molecule of their own block, whether it stands above or below them.

Tests used:
[1] = tested on: 250 other protein kinases
[2] = human, in vivo
[3] = patients with advanced solid tumors
[4] = patients with advanced solid tumors; remark: listed apart in the source
[5] = molecular target: PKA (Homo sapiens, UniProt P17612)
[6] = molecular target: p70S6K (Homo sapiens, UniProt P23443)
Chain of p70S6K (P23443 whole entry): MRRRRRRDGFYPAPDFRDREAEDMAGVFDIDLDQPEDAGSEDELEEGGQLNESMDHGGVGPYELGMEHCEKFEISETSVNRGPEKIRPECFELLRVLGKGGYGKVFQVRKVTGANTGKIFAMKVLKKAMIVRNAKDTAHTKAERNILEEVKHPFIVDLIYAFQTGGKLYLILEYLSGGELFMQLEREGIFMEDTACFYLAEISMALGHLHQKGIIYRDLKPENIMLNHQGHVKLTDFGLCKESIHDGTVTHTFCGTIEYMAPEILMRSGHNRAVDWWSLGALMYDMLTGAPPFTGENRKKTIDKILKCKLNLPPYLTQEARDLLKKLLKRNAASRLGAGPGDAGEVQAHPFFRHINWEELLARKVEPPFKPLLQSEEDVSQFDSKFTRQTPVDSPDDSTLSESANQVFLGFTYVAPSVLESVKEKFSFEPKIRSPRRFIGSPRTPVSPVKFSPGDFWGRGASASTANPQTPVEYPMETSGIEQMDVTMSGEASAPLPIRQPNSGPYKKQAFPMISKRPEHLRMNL

Compound: NC1(c2ccc(-c3nc4ccn5c(=O)[nH]nc5c4cc3-c3ccccc3)cc2)CCC1 [MK-2206 2HCl]
inhibitory activities against 250 other protein kinases [1]: no inhibitory activities

Compound: NC1(C(=O)N[C@@H](CCO)c2ccc(Cl)cc2)CCN(c2ncnc3[nH]ccc23)CC1 [AZD5363]
tolerability [2]: generally well tolerated

Compound: CC(C)NC[C@@H](C(=O)N1CCN(c2ncnc3c2[C@H](C)C[C@H]3O)CC1)c1ccc(Cl)cc1 [GDC-0068]
single agent maximum tolerated dose [3]: 600 mg

Compound: NC1(c2ccc(-c3nc4ccn5c(=O)[nH]nc5c4cc3-c3ccccc3)cc2)CCC1 [MK-2206]
dose-limiting toxicities ([4]; 30, 60, 75, or 90 mg on alternate days): skin rash and stomatitis | MTD ([4]; oral, alternate days): 60 mg

IC50 [5]: 0.02 µM | IC50 [6]: 0.085 µM
Compound: Clc1ccc(C2(c3ccc(-c4cn[nH]c4)cc3)CCNCC2)cc1 [AT7867]
